Test systems include A549; CAKI-1; HCT-116; HCT-15; HOP-92; IGROV-1; KM12; LOX IMVI; MDA-N; NCI-H23; NCI-H522; SF-268; SK-MEL-28; SK-MEL-2; SN12C; SNB-75; T47D; TK-10; UACC-257; UACC-62.
Common to all, as to experiment: NCI-60 cell line screen, 48 h

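48-hour exposure; five concentrations; linearly interpolated endpoints. The concentration for 50% growth inhibition is given as GI50.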 Active and inactive are the calls of the source. No stated cut-off is given here; in the data, active = GI50 up to about 1.1 µM and inactive = higher. Some results are limits rather than exact numbers.

For the compound `Oc1c(/N=N\c2ccccc2)c2cccc3ccc4cccc1c4c32`, the GI50 was > 100 µM (inactive) in the assay with A549; > 100 µM (inactive) in the assay with CAKI-1; > 100 µM (inactive) in the assay with HCT-116; more than 100 µM with HCT-15; > 100 µM (inactive) in the assay with HOP-92; > 100 µM (inactive) in the assay on IGROV-1. Further, the GI50 in the assay with KM12 is > 100 µM (inactive); in the assay with LOX IMVI, > 100 µM (inactive); in the assay on MDA-N, > 100 µM (inactive); in the assay with NCI-H23, > 100 µM (inactive); with NCI-H522, > 100 µM (inactive); with SF-268 it was 45.9 µM (inactive). Moreover, the GI50 is > 100 µM (inactive) with SK-MEL-28; > 100 µM (inactive) in the assay on SK-MEL-2; > 100 µM (inactive) in the assay with SN12C; 38.6 µM (inactive) with SNB-75; > 100 µM (inactive) with T47D; > 100 µM (inactive) with TK-10. The GI50 in the assay on UACC-257 and in the assay with UACC-62 was > 100 µM (inactive) in each case.

Turning to `Nc1nc2c(ncn2C2CCC(CO)O2)c(=O)n1C(=O)c1ccccc1` (stereo not given), the GI50 in the assay on A549 is > 100 µM (inactive); with CAKI-1, > 100 µM (inactive); in the assay on HCT-116, > 100 µM (inactive); in the assay on HCT-15 it was more than 100 µM; with HOP-92 it was > 100 µM (inactive); with IGROV-1 it was > 100 µM (inactive). The GI50 with KM12, with LOX IMVI, with MDA-N, with NCI-H23, in the assay on NCI-H522 and in the assay with SF-268 was > 100 µM (inactive) each time. For the same compound, the GI50 in the assay on SK-MEL-28 is > 100 µM (inactive); with SK-MEL-2, > 100 µM (inactive); with SN12C, > 100 µM (inactive); in the assay on SNB-75 it was > 74.5 µM (inactive); with T47D, > 100 µM (inactive); in the assay on TK-10 it was > 100 µM (inactive). In addition, the GI50 in the assay on UACC-257 and in the assay on UACC-62 was > 100 µM (inactive) in each case.

Turning to `CC(=O)Nc1ccc(S(=O)(=O)c2nnc(NC(C)=O)s2)cc1`, the GI50 is > 100 µM (inactive) with A549; > 100 µM (inactive) in the assay on CAKI-1; > 100 µM (inactive) in the assay on HCT-116; more than 100 µM in the assay on HCT-15; > 100 µM (inactive) in the assay with HOP-92; > 100 µM (inactive) in the assay on IGROV-1. Further, the GI50 in the assay on KM12, in the assay with LOX IMVI, in the assay with MDA-N, in the assay with NCI-H23, in the assay on NCI-H522 and in the assay on SF-268 was > 100 µM (inactive) throughout. Further, the GI50 in the assay with SK-MEL-28, in the assay on SK-MEL-2, in the assay with SN12C, in the assay with SNB-75, in the assay with T47D and in the assay with TK-10 was > 100 µM (inactive) throughout. The GI50 in the assay on UACC-257 and in the assay on UACC-62 was > 100 µM (inactive) throughout.

On to `CC(C)C[C@H](NC(=O)[C@H](Cc1ccc(F)cc1)NC(=O)c1ccccn1)B(O)O`, for which the GI50 with A549 was < 0.01 µM (active); with CAKI-1, < 0.01 µM (active); with HCT-116 it was < 0.01 µM (active); in the assay on HCT-15, less than 0.01 µM; with HOP-92, < 0.01 µM (active); in the assay with IGROV-1, < 0.01 µM (active). The GI50 with KM12, in the assay with LOX IMVI, with MDA-N, in the assay on NCI-H23, with NCI-H522 and in the assay with SF-268 was < 0.01 µM (active) each time. Besides, the GI50 with SK-MEL-28, in the assay on SK-MEL-2, with SN12C, with SNB-75, with T47D and in the assay with TK-10 was < 0.01 µM (active) each time. Further, the GI50 in the assay on UACC-257 and with UACC-62 was < 0.01 µM (active) throughout.

`CC1=C(/C=C/C(C)=C/C=C/C(C)=C/C(=O)O)C(C)(C)CCC1` [TRETINOIN]: the GI50 with A549 is 39.9 µM (inactive); in the assay on CAKI-1 it was > 70.6 µM (inactive); with HCT-116 it was 48.6 µM (inactive); in the assay on HCT-15 it was 48.2 µM; in the assay with HOP-92, > 63.8 µM (inactive); in the assay on IGROV-1 it was > 78.9 µM (inactive). The GI50 in the assay with KM12 was 42.3 µM (inactive); in the assay with LOX IMVI it was 31.9 µM (inactive); in the assay with MDA-N it was 45.8 µM (inactive); with NCI-H23, 55.3 µM (inactive); in the assay with NCI-H522, 56.9 µM (inactive); in the assay on SF-268 it was > 62.5 µM (inactive). The GI50 in the assay with SK-MEL-28 was 53.8 µM (inactive); with SK-MEL-2, 28.9 µM (inactive); in the assay on SN12C, 52 µM (inactive); in the assay with SNB-75, > 61.9 µM (inactive); with T47D, 2.55 µM (inactive); with TK-10, 71.8 µM (inactive). Also, the figures for the GI50 with UACC-257 and in the assay with UACC-62 were 62.4 µM (inactive) and > 64.3 µM (inactive), respectively.
